Assay [1] deals with MLKL phosphorylation in HT29-L23 human colorectal adenocarcinoma cells. As to the kind of experiment: MLKL Phosphorylation High-Content Assay. The format is cell-based. The note with it: necroptosis induced with TNFα, SMAC mimetic and Z-VAD, 6 h, read-out: pMLKL (IC50). As to the method:
MLKL Phosphorylation High-Content Assay
HT29-L23 human colorectal adenocarcinoma cells were maintained in RPMI 1640 medium containing 10% heat-inactivated FBS, 1% Penicillin-Streptomycin and 10 mM HEPES. Cells were seeded at 2,000 cells/well in 384 well tissue culture-treated microplates (Greiner #781090-3B) and incubated at 37° C. (5% CO2/95% O2) for 2 d. On the day of the assay, the cells were treated with test compounds at final concentrations of 6.25 to 0.106 μM for 30 min at 37° C. (5% CO2/95% O2). Necroptopsis was induced using a mixture of human TNFα (35 ng/mL) (Peprotech #300-01A), SMAC mimetic (from US 2015/0322111 A1) (700 nM) and Z-VAD (140 nM) (BD pharmingen #51-6936). Following 6 h incubation at 37° C. (5% CO2/95% O2), the cells were fixed with 4% formaldehyde (ACROS 11969-0010) for 15 min at rt, then permeabilized with phosphate buffered saline (PBS) containing 0.2% Triton-X-100 for 10 min. MLKL phosphorylation was detected using anti-MLKL (phospho S358) antibody (Abcam #ab187091) (1:1000 dilution in Blocking Buffer [PBS supplemented with 0.1% BSA]) with ON incubation at 4° C. After washing three times in PBS, goat anti-rabbit Alexa-488 (1:1000 dilution) (Life Technologies, A1 1008) and Hoechst 33342 (Life Technologies, H3570) (1:2000 dilution) in Blocking Buffer were added for 1 h at rt. Following another three cycles of washes in PBS, the microplates were sealed, and cellular images were acquired in the Cellomics ArrayScan VTI high-content imager equipped with an X1 camera. Fluorescent images were taken using a 10× objective and the 386-23 BGRFRN_BGRFRN and 485-20 BGRFRN_BGRFRN filter sets, for nuclei and MLKL phosphorylation, respectively. The image sets were analyzed using the Compartmental Analysis Bioapplication software (Cellomics). The level of MLKL phosphorylation was quantified as MEAN_CircRingAvglntenRatio. The maximal inhibitory response was defined by the activity induced by Necls (CAS #: 852391-15-2, 6.25 μm). The IC50 value was defined as the concentration of compound that produces 50% of the maximal inhibition. The data were fitted using the 4-parameter logistic equation to calculate the IC50 and Ymax values.

For assay [2], the target named is T1, His-GST-TVMV-hRIPK1(1-324) (Homo sapiens, UniProt Q13546).
T1 construct: 1 nM His-GST-TVMV-hRIPK1(1-324) in FRET Buffer; made in house; host or cells: Spodoptera frugiperda (Sf9) insect cells, baculovirus (Bac-to-Bac)
T1 sequence (Q13546 1-324): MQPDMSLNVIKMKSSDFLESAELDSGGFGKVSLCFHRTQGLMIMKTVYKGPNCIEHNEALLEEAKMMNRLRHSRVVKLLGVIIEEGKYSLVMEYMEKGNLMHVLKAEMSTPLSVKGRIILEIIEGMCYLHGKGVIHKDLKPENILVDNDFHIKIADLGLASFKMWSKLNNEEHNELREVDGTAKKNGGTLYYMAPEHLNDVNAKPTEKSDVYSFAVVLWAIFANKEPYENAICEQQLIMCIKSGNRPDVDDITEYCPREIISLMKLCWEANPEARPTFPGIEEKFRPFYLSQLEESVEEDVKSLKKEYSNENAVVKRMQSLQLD
Description: RIPK1 HTRF Binding Assay. As to conditions: HTRF probe displacement, 1 h at rt. How it is done: A solution was prepared containing 0.2 nM Anti GST-Tb (Cisbio, 61GSTTLB), 90.6 nM probe and 1 nM His-GST-TVMV-hRIPK1(1-324) in FRET Buffer (20 mM HEPES, 10 mM MgCl2, 0.015% Brij-35, 4 mM DTT, 0.05 mg/mL BSA). Using Formulatrix Tempest, the detection antibody/enzyme/probe solution ([…]) was dispensed into wells of a 1536 plate (Black Low Binding Polystyrene 1536 Plate (Corning, 3724)) containing 10 nL of compounds of interest at appropriate concentration in DMSO. The plate was incubated at rt for 1 h. FRET was measured using the EnVision plate reader (Excitation: 340 nm, Emission: 520 nm/[…]). Total signal (0% inhibition) was calculated from wells containing 10 nL DMSO only.
Cloning and Baculovirus Expression of RIPK1 Construct
The coding region of human RIPK1(1-324) flanked by NdeI site at 5′ end and stop codon TGA and XhoI site at 3′ end was codon optimized and gene synthesized at GenScript USA Inc. (Piscataway, NJ) and subcloned into a modified pFastBac1 vector (Invitrogen, Carlsbad, CA) with N-terminal His-GST-TVMV tag, to generate His-GST TVMV-hRIPK1(1-324)-pFB. The fidelity of the synthetic fragment was confirmed by sequencing. Baculovirus was generated for the construct using the Bac-to-Bac baculovirus expression system (Invitrogen) according to the manufacturer's protocol. Briefly, recombinant bacmid was isolated from transformed DH10Bac E. coli competent cells 20 (Invitrogen) and used to transfect Spodoptera frugiperda (Sf9) insect cells (Invitrogen). Baculovirus was harvested 72 hours post transfection and a virus stock was prepared by infecting fresh Sf9 cells at a 1/1000 (v/v) ratio for 66 hours. For large scale protein production, Sf9 cells (Expression System, Davis, CA) grown in ESF921 insect medium (Expression System) at 2×10^6 cells/ml were infected with virus stock at a 1/100 (v/v) ratio for 66 hours. The production was carried out either at a 10 L scale in a 22 L cellbag (GE Healthcare Bioscience, Pittsburgh, PA) or at a 20 L scale in a 50 L cellbag using WAVE-Bioreactor System 20/50 (GE Healthcare Bioscience). The infected cells were harvested by centrifugation at 2000 rpm for 20 min at 4° C. in a SORVALL® RC12BP centrifuge. The cell pellets was stored at −70° C. before protein was purified.
Purification of His-GST-TVMV-hRIPK1(1-324)
RIPK1 containing cell paste was resuspended in 50 mM Tris pH 7.5, 150 mM NaCl, 10 mM imidazole, 5% glycerol, 5 mM MgSO4, 1 mM TCEP, 25 U/ml Benzonase, and Complete Protease Inhibitor tablets (1/50 ml, Roche Diagnostics, Indianapolis, IN). The cells were lysed by nitrogen cavitation using an unstirred pressure vessel @ 525 PSI (Parr Instrument Company, Moline, IL). The suspension was clarified by centrifugation at 136,000×g for 40 min, at 4° C. The lysate was decanted from the pellet and passed through a 5 ml NiNTA Superflow cartridge (Qiagen, Valencia, CA) using an AKTA Pure (GE Healthcare). Column was eluted with 10 CV linear gradient into 50 mM Tris 7.5, 150 mM NaCl, 500 mM imidazole, 5% glycerol, 1 mM TCEP. Peak fractions were pooled and loaded directly onto 5 ml GSTrap 4B column (GE Healthcare). Column was washed with 50 mM Tris 7.0, 150 mM NaCl, […], 1 mM DTT and eluted in 10 CV linear gradient into 50 mM Tris 8.0, 150 mM NaCl, 20 mM reduced glutathione, 50% glycerol, 1 mM DTT. Fractions identified by SDS-PAGE as containing RIPK1 were pooled and concentrated using 30 kDa MWCO spin concentrators (Amicon Ultra-15, Millipore, Billerica, MA) and loaded onto a HiLoad 26/600 Superdex 200 column (GE Healthcare) equilibrated in 25 mM Tris 7.5, 150 mM NaCl, 2 mM TCEP, […]. The RTPK1 protein eluted as a dimer off the SEC column. The yield was ˜8 mg/L with a purity […] as determined by Coomassie stain SDS-PAGE gel analysis. […] Protein was aliquoted and stored at −80° C. Using these assays, the IC50 values of the following compounds were determined.
(TR-FRET usually uses a lanthanide donor and a delayed reading to cut background.)

Like-named read-outs stand apart in the source and are kept apart here.

As a reminder, the IC50 is the concentration that gives 50% inhibition.

With `CNC(=O)c1n[nH]c2cc(-c3nc(C)c(C(=O)NCC[C@@H](O)c4ccc(Cl)cc4)s3)ccc12` [Example 16, (R)-N-(3-(4-chlorophenyl)-3-hydroxypropyl)-4-methyl-2-(3-(methylcarbamoyl)-1H-indazol-6-yl)thiazole-5-carboxamide], the IC50 in assay [1] (Homo sapiens) was found to be 210 nM; in assay [2], 150 nM.

As for `CNC(=O)c1n[nH]c2cc(-c3ccc(C(=O)NCC[C@H](O)c4ccc(Cl)cc4)s3)ccc12` [Example 8, (S)-6-(5-((3-(4-chlorophenyl)-3-hydroxypropyl)carbamoyl)thiophen-2-yl)-N-methyl-1H-indazole-3-carboxamide], the IC50 in assay [1] (Homo sapiens) was found to be 6300 nM; in assay [2] it was 220 nM.

Consider `CNC(=O)c1n[nH]c2cc(-c3nc(C)c(C(=O)NCCC(C)c4ccccc4)n3C)ccc12` (centres unmarked) [Example 27, 6-(1,4-dimethyl-5-((3-phenylbutyl)carbamoyl)-1H-imidazol-2-yl)-N-methyl-1H-indazole-3-carboxamide], for which the values for the IC50 in assay [1] (Homo sapiens) and in assay [2] were 470 nM and 220 nM, respectively.

As to `CNC(=O)c1n[nH]c2cc(-c3nc(C)c(C(=O)NCC[C@H](O)c4ccc(Cl)cc4)n3C)ccc12` [Example 29, (S)-6-(5-((3-(4-chlorophenyl)-3-hydroxypropyl)carbamoyl)-1,4-dimethyl-1H-imidazol-2-yl)-N-methyl-1H-indazole-3-carboxamide], the IC50 in assay [1] (Homo sapiens) came out at 3300 nM; in assay [2] it was 1900 nM.

With `CNC(=O)c1n[nH]c2cc(-c3nc(C)c(C(=O)NCc4cc(OC(F)(F)F)ccc4F)n3C)ccc12` [Example 26, 6-(5-((2-fluoro-5-(trifluoromethoxy)benzyl)carbamoyl)-1,4-dimethyl-1H-imidazol-2-yl)-N-methyl-1H-indazole-3-carboxamide], the IC50 came out at 49 nM in assay [1] (Homo sapiens) and 30 nM in assay [2].

Consider `CNC(=O)c1n[nH]c2cc(-c3nc(C(=O)NCc4cc(C(F)(F)F)ccc4F)c(C)n3C)ccc12` [Example 35, 6-(4-((2-fluoro-5-(trifluoromethyl)benzyl)carbamoyl)-1,5-dimethyl-1H-imidazol-2-yl)-N-methyl-1H-indazole-3-carboxamide], for which the IC50 is 890 nM in assay [1] (Homo sapiens) and 200 nM in assay [2].

Turning to “(S)-6-(5-((3-(4-chlorophenyl)-3-hydroxypropyl)carbamoyl)-4-methylthiophen-2-yl)-N-methyl-1H-indazole-3-carboxamide [Example 13]”, the IC50 stood at 23 nM in assay [1] and 10 nM in assay [2].

Take `CNC(=O)c1n[nH]c2cc(-c3csc(C(=O)NCc4cc(OC(F)(F)F)ccc4F)c3)ccc12` [Example 1, 6-(5-((2-fluoro-5-(trifluoromethoxy)benzyl)carbamoyl)thiophen-3-yl)-N-methyl-1H-indazole-3-carboxamide]: the results for the IC50 in assay [1] (Homo sapiens) and in assay [2] were 21 nM and 6.8 nM, respectively.

On to `CNC(=O)c1n[nH]c2cc(-c3nc(C)c(C(=O)NCC[C@H](O)c4ccc(Cl)cc4)s3)ccc12` [Example 17, (S)-N-(3-(4-chlorophenyl)-3-hydroxypropyl)-4-methyl-2-(3-(methylcarbamoyl)-1H-indazol-6-yl)thiazole-5-carboxamide], for which the IC50 in assay [1] (Homo sapiens) worked out at 340 nM; in assay [2], 180 nM.

For the compound `CNC(=O)c1n[nH]c2cc(-c3cc(C)c(C(=O)NCC[C@@H](O)c4ccc(Cl)cc4)s3)ccc12` [Example 12, (R)-6-(5-((3-(4-chlorophenyl)-3-hydroxypropyl)carbamoyl)-4-methylthiophen-2-yl)-N-methyl-1H-indazole-3-carboxamide], the IC50 in assay [1] (Homo sapiens) amounted to 11 nM; in assay [2] it was 3.8 nM.

With `CNC(=O)c1n[nH]c2cc(-c3nc(C(=O)NCCC(C)c4ccccc4)c(C)n3C)ccc12` (centres unmarked) [Example 32, 6-(1,5-dimethyl-4-((3-phenylbutyl)carbamoyl)-1H-imidazol-2-yl)-N-methyl-1H-indazole-3-carboxamide], the IC50 in assay [1] (Homo sapiens) was determined as 460 nM; in assay [2], 230 nM.

Consider `CNC(=O)c1n[nH]c2cc(-c3csc(C(=O)NCCC(C)c4ccccc4)c3)ccc12` (centres unmarked) [Example 2, N-methyl-6-(5-((3-phenylbutyl)carbamoyl)thiophen-3-yl)-1H-indazole-3-carboxamide], for which the 50% inhibitory concentration (IC50) in assay [1] (Homo sapiens) came out at 8.2 nM; in assay [2], 6 nM.

As to `CNC(=O)c1n[nH]c2cc(-c3ncc(C(=O)NCC[C@@H](O)c4ccc(Cl)cc4)s3)ccc12` [Example 25, (R)-N-(3-(4-chlorophenyl)-3-hydroxypropyl)-2-(3-(methylcarbamoyl)-1H-indazol-6-yl)thiazole-5-carboxamide], the IC50 in assay [1] (Homo sapiens) amounted to 1600 nM; in assay [2] it was 280 nM.

For the origin of these results see US12275721B2, “Indazole carboxamides as kinase inhibitors” (BRISTOL-MYERS SQUIBB COMPANY, priority 2019, dated 2025).
